What was measured:
[1] = test system: STAT6; experiment: STAT6 inhibition test: (GLS)x8/pTA-Luc luciferase reporter in U2-OS cells stimulated with human IL-4; type: cell-based; conditions: human IL-4 40 ng/mL; for Inhibition Rate of STAT6 (%): compound 2 μM, 8 hours; for IC50: from inhibition rates at 1, 0.1, 0.01 and 0.001 μM, read-out: IC50 against activation of STAT6
Excerpt: (1) Construction of a STAT6 Reporter Plasmid
The Oligonucleotides (SEQ ID: 1, 2) containing two copies of STAT6 binding sequences (refer to J. Biol. Chem., vol. 276, No. 9, pp. 6675-6688 (2001).) were synthesized, and integrated into the enhancer region of the reporter plasmid pTA-Luc Vector (CLONTECH Laboratories, Inc.) at the restriction enzyme BgIII site.
When the oligonucleotide is integrated in positive direction into the plasmid, the upstream BglII site is not reconstructed. Therefore, STAT6 binding sequences can be increased by repeating integration of the oligonucleotide at the restriction enzyme BglII site.
In the present test, a plasmid including eight integrated STAT6 binding sequences was constructed and provided for the reporter assay as (GLS)x8/pTA-Luc. Confirmation of the sequences was carried out using an automated fluorescence sequencer (Model 310 (Applied Biosystems)).
(2) Transfection into U2-OS Cells and Inhibition Test for STAT6 Activation
U2-OS cells were seeded to at 2×10^4 cells/well in 96-well culture plates, and transfection was carried out using FuGENE 6 Transfection Reagent (Roche Diagnostics GmbH). The procedures of the transfection are shown below.
11 μg of reporter plasmid ((GLS)x8/pTA-Luc) and 1.1 μg of pCMV β (CLONTECH Laboratories, Inc.) were mixed in 1.1 mL of OPTI-MEM I medium (GIBCO BRL) (solution (A)).
33 μL of FuGENE 6 Transfection Reagent was mixed in 1.1 mL of OPTI-MEM I medium (solution (B)).
(§1) The above solution (A) and solution (B) were mixed, let them stand for 15 minutes at room temperature, then, 8.8 mL of OPTI-MEM I medium was added and diluted.
To this transfection solution, U2-OS cell suspension (11 mL) in McCoy's 5A medium (GIBCO BRL) containing 10% Fetal Bovine Serum (FBS; GIBCO BRL) at 2×10^5 cells/mL was added and well mixed.
(§2) 0.2 mL of the above solution was dispensed into each well of 96-well culture plates, and incubated for 24 hours (37° C., 5% CO2).
After removal of 50 μL of medium from each well, 50 μL of McCoy's 5A medium (serum-free) containing compound, of the present application was added to a final concentration of 0.01˜2 μM (0.001, 0.01, 0.1, 0.5, 1 or 2 μM), and the plates were incubated for 2 hours (37° C., 5% CO2).
10 μL of the McCoy's 5A medium (serum-free) containing human IL-4 (R&D Systems, Inc) was added to each well to achieve a final concentration of 40 ng/mL, and incubated for 8 hours (37° C., 5% CO2).
(§3) Medium was completely removed and plates were preserved at −80° C. until measurements.
(§4) Cell lysates were prepared by adding 40 μL of Passive Lysis Buffer (Promega Corporation) to each well.
(§5) 10 μL of each lysate was transferred to 96-well white plates. 50 μL of PicaGene L.T.2.0 (TOYO INK MFG. CO., LTD.) was added to each well, then, luminescence was measured after leaving for 10 minutes at room temperature.
(§6) 10 μL of each lysate was transferred to 96-well black plates. 100 μL of Z Buffer (preparation method will be explained later) was added to each well, and fluorescence was measured immediately.
(§7) 10 μL of each lysate was transferred to 96-well clear plates. 200 μL of protein assay reagent prepared from the BCA Protein Assay Kit (Pierce Biotechnology, Inc.) was added to each well, and, absorbance was measured after incubation for 30 minutes at 37° C.
(§8) For measurements of luminescence, fluorescence, and absorbance, microplate reader GENios (TECAN G.M.B.H.) was used.
(4) Calculation of Inhibition Rate
Luminescence values that show the degree of activation by IL-4 stimulation were normalized by β-gal values that show transfection efficiency. Using the normalized values, the following calculations were carried out using the luminescence values increased by IL-4 stimulation. Inhibition Rate(%)=[…] E: In the presence of the compound of the present application, increased luminescence value by IL-4 stimulation C: Without the presence of the compound of the present application, increased luminescence value by IL-4 stimulation […]

[2] = test system: NF-κB; experiment: NF-κB inhibition test: pNFκB-Luc luciferase reporter in U2-OS cells stimulated with human TNF α; type: cell-based; conditions: human TNF α 10 ng/mL; for Inhibition Rate of NF-κB (%): compound 2 μM, 8 hours; for IC50: from inhibition rates at 1, 0.1, 0.01 and 0.001 μM, read-out: IC50 against activation of NF-κB
Protocol: (1) Transfection to U2-OS Cells and Inhibition Test of Activation
U2-OS cells were seeded at 2×10^4 cells/well in 96-well culture plate, and transfection was carried out using FuGENE 6 Transfection Reagent (Roche Diagnostics GmbH). The procedures of the transfection are shown below.
11 μg of reporter plasmid (pNFκB-Luc; Stratagene Corporation) and 1.1 μg of pCMV β (CLONTECH Laboratories, Inc.) were mixed in 1.1 mL of OPTI-MEM I medium (GIBCO BRL) (solution (A)).
[…] of FuGENE 6 Transfection Reagent was mixed in 1.1 mL of OPTI-MEM I medium (solution (B)).
as §1
To this transfection solution, U2-OS cell suspension (11 mL) in McCoy's 5A medium (GIBCO BRL) containing 10% Fetal Bovine Serum (FBS; GIBCO BRL) at […] was added and well mixed.
as §2
After removal of 50 μL of medium from each well, 50 μL of McCoy's 5A medium (serum-free) containing compound of the present application was added to a final concentration of 0.01˜2 μM (0.001, 0.01, 0.1, 0.5, 1 or 2 μM), and the plates were incubated for 2 hours (37° C., 5% CO2).
10 μL of the McCoy's 5A medium (serum-free) containing human TNF α (PEPROTECH EC Ltd.) was added to each well to achieve a final concentration of 10 ng/mL, and incubated for 8 hours (37° C., 5% CO2).
as §3, §4, §5, §6, §7, §8
(3) Calculation of Inhibition Rate
Luminescence values that show the degree of activation by TNF α stimulation were normalized by β-gal values that show transfection efficiency. Using the normalized values, the following calculation was carried out using the luminescence values that increased by TNF α stimulation. Inhibition Rate(%)=[…] E: In the presence of the compound of the present application, increased luminescence values by TNF α stimulation C: Without the presence of the compound of the present application, increased luminescence values by TNF α, stimulation
The values of protein assay by BCA reagent were used for a simple assessment of cytotoxicity, and not used for the calculation of inhibition rates.
NF-κB Inhibition Rates are shown below. The values in parentheses in the table represent the concentration of the compound of the present application.
NF-κB inhibition rates where the concentrations of the compound of the present application were 1, 0.1, 0.01 and 0.001 μM were calculated, and the 50% inhibitory concentrations (IC50) of the compounds of the present application against activation of NF-κB were evaluated.

| SMILES | Inhibition Rate of STAT6 (%) [1] | Inhibition Rate of NF-κB (%) [2] | IC50 [1] | IC50 [2] |
| --- | --- | --- | --- | --- |
| CCOc1cc(NC(=O)c2cc(Cl)ccc2O)ccc1N1CCCCC1 [compound 14] | 56 (2 μM) % | 60 (2 μM) % |  |  |
| Cl.O=C(Nc1ccc(N2CCC(N3CCCC3)CC2)c(F)c1)c1cc(Cl)ccc1O [compound 15] | 59 (2 μM) % | 53 (2 μM) % |  |  |
| CN1CCN(c2ccc(NC(=O)c3cc(Cl)ccc3O)cc2C(F)(F)F)CC1.Cl [compound 16] | 92 (2 μM) % | 86 (2 μM) % | 82.2 nM | 89.1 nM |
| CN1CCN(c2ccc(NC(=O)c3cc(Cl)ccc3O)cc2Cl)CC1.Cl [compound 17] | 96 (2 μM) % | 90 (2 μM) % | 82.9 nM | 113 nM |
| Cc1cc(NC(=O)c2cc(Cl)ccc2O)ccc1N1CCN(C)CC1.Cl [compound 18] | 79 (2 μM) % | 67 (2 μM) % | 91.9 nM | 147 nM |
| Cc1cc(NC(=O)c2cc(Cl)ccc2O)ccc1N1CCNCC1 [compound 23] | 24 (2 μM) % | 11 (2 μM) % |  |  |
| CN1CCC(Oc2ccc(NC(=O)c3cc(Cl)ccc3O)cc2F)CC1 [compound 24] | 93 (2 μM) % | 91 (2 μM) % | 36.8 nM | 43.3 nM |
| Cc1cc(NC(=O)c2cc(Cl)ccc2O)ccc1OC1CCN(C)CC1 [compound 25] | 80 (2 μM) % | 60 (2 μM) % |  |  |
| O=C(Nc1ccc(N2CCSCC2)c(F)c1)c1cc(Cl)ccc1O [compound 26] | 95 (2 μM) % | 68 (2 μM) % |  |  |
| O=C(Nc1ccc(OC2CCNCC2)c(F)c1)c1cc(Cl)ccc1O [compound 31] | 93 (2 μM) % | 92 (2 μM) % | 6.37 nM | 12.2 nM |
| Cl.O=C(Nc1ccc(OC2CCNCC2)c(F)c1)c1cc(Cl)ccc1O [compound 32] | 92 (2 μM) % | 91 (2 μM) % | 5.88 nM | 13.7 nM |
| CN1CCCN(c2ccc(NC(=O)c3cc(Cl)ccc3O)cc2F)CC1 [compound 34] | 94 (2 μM) % | 95 (2 μM) % | 3.22 nM | 7.04 nM |
| O=C(Nc1ccc(N2CCN(C(=O)CCN3CCCCC3)CC2)c(F)c1)c1cc(Cl)ccc1O [compound 35] | 26 (2 μM) % | 24 (2 μM) % |  |  |
| CN1CCC(Oc2ccc(NC(=O)c3cc(Cl)ccc3O)cc2F)C1 (stereo not drawn) [compound 38] | 77 (2 μM) % | 64 (2 μM) % |  |  |
| O=C1CCN(c2ccc(NC(=O)c3cc(Cl)ccc3O)cc2F)CC1 [compound 39] | 46 (2 μM) % | 16 (2 μM) % |  |  |
| NC1CCN(c2ccc(NC(=O)c3cc(Cl)ccc3O)cc2F)C1 (stereo not drawn) [compound 42] | 41 (2 μM) % | 24 (2 μM) % |  |  |
| O=C(Nc1ccc(N2CCC(O)CC2)c(F)c1)c1cc(Cl)ccc1O [compound 43] | 46 (2 μM) % | 32 (2 μM) % |  |  |
| O=C(Nc1ccc(N2CCCNCC2)c(F)c1)c1cc(Cl)ccc1O [compound 44] | 94 (2 μM) % | 94 (2 μM) % | 7.51 nM | 15.7 nM |
| Cl.O=C(Nc1ccc(OCC2CCNCC2)c(F)c1)c1cc(Cl)ccc1O [compound 45] | 76 (2 μM) % | 68 (2 μM) % |  |  |
| Cl.NCC1CCN(c2ccc(NC(=O)c3cc(Cl)ccc3O)cc2F)CC1 [compound 47] | 96 (2 μM) % | 95 (2 μM) % | 7.98 nM | 14 nM |
| NC(=O)C1CCCN(c2ccc(NC(=O)c3cc(Cl)ccc3O)cc2F)C1 (stereo not drawn) [compound 48] | 42 (2 μM) % | 40 (2 μM) % |  |  |
| Cl.O=C(Nc1ccc(OCC2CCCNC2)c(F)c1)c1cc(Cl)ccc1O (stereo not drawn) [compound 49] | 84 (2 μM) % | 87 (2 μM) % | 14.8 nM | 28.4 nM |
| CN1CCCC(COc2ccc(NC(=O)c3cc(Cl)ccc3O)cc2F)C1 (stereo not drawn) [compound 50] | 43 (2 μM) % | 45 (2 μM) % |  |  |
